Converted amounts (≈) assume the structure as drawn. Where a SMILES comes first, the peptide text is derived from it.
Tests used:
red blood cells = format: cell-based, mouse
Procedure: (§1) Based on the antimicrobial activity screening, a hemolysis assay was conducted to assess the toxicity of Cy-f1, Cy-f2, and Cy-f4 (Figure 5). For Cy-f1, the hemolysis percentage remained consistently low across all tested concentrations. At 8 μM, Cy-f1 induced approximately 0.12% hemolysis. […] For Cy-f2, the hemolysis percentage also remained consistently low across all tested concentrations. At 8 μM, Cy-f2 induced approximately 0.3% hemolysis, and Cy-f2 stayed stable at 0.3% at 16 μM and 32 μM. […] At 8 μM, it induced approximately 0.7% hemolysis, […]. However, hemolysis increased slightly with higher concentrations, reaching approximately […] and 1.1% at 16 μM and 32 μM, respectively. […] In this experiment Triton X-100 was used as a positive control with a hemolysis rate of 100%.
For the hemolytic assay, 2 mL of fresh blood was collected from a healthy mouse into an EDTA-coated tube. All procedures regarding the care and use of laboratory animals adhered to the guidelines established by the Guangxi University Ethics Committee (Approval No.: GXU-2024-063). According to the method of Tan with necessary adjustments. The blood was centrifuged and upper supernatant plasma was removed. […] After centrifugation, 200 µL of supernatant were transferred into a 96-well plate and the absorbance was recorded at 576 nm using a microplate reader. […]

[1] = tested on: Bacillus subtilis (BNCC 109047); format: cell-based
Procedure: (§2) The antimicrobial and antifungal activities of 11 cyclic hexapeptides (Cy-f1 to Cy-f11) were evaluated by determining their minimum inhibitory concentrations (MICs) against a panel of pathogens (Figure 4). These pathogens included Gram-negative bacteria (Escherichia coli, Klebsiella pneumoniae, Pseudomonas aeruginosa), Gram-positive bacteria (Staphylococcus aureus, Bacillus subtilis, Staphylococcus aureus [MRSA], […]), and fungi (Candida tropicalis, Cryptococcus neoformans).
(§3) The antibacterial activity of peptide analogs was tested against different bacterial strains, all purified cyclotides underwent antibacterial testing against Gram-positive bacterium Staphylococcus aureus (BNCC 186335), Bacillus subtilis (BNCC 109047), and Staphylococcus aureus (MRSA, BNCC 330041), Gram-negative bacteria, including Acinetobacter baumannii (BNCC 337173), Pseudomonas aeruginosa (BNCC 125486), and […]. Fungi included Candida parapsilosis (BNCC 336515) and Candida tropicalis (BNCC 340288). All the above strains are from the Henan Provincial Engineering Research Center of Industrial Microorganisms (Henan, China). Escherichia coli (ATCC 25922) and Klebsiella pneumoniae (CMCC(B) 46117) were sourced from Guangzhou HuanKai Microbial Technology Co., Ltd. (Guangzhou, China). The peptides’ MIC was determined using the Clinical and Laboratory Standards Institute broth dilution procedure with slight modifications.
(§4) Colonies of these bacterial strains were grown in respective agar media, then inoculated in Mueller Hinton (MH) broth and incubated at 37 °C overnight. The peptide solutions were first diluted 1 in 100 (from the stock solution at 20 mM) and then further two-fold dilution in MH broth in a sterile 96-well plate was performed, resulting in 100 µL of broth containing increasing concentrations. Bacteria in their exponential growth phase were diluted in MH broth, and 100 µL of this suspension was added in each well. […] Then, these plates were incubated at 37 °C for 20–22 h.
(§5) Each test was performed at least three times. MIC (minimum inhibitory concentration) values were determined as the concentrations of peptides that caused >99% inhibition of bacterial growth.

[2] = tested on: Escherichia coli (ATCC 25922); format: cell-based
Procedure: as §2, §3, §4, §5

[3] = tested on: Klebsiella pneumoniae (CMCC(B) 46117); format: cell-based
Procedure: as §2, §3, §4, §5

[4] = tested on: Pseudomonas aeruginosa (BNCC 125486); format: cell-based
Procedure: as §2, §3, §4, §5

[5] = tested on: Staphylococcus aureus (BNCC 186335); format: cell-based
Procedure: as §2, §3, §4, §5

[6] = tested on: Staphylococcus aureus (MRSA, BNCC 330041); format: cell-based
Procedure: as §2, §3, §4, §5

[7] = tested on: Cryptococcus neoformans (BNCC 225501); format: cell-based; conditions: BNCC 225501, 48 h
Procedure: as §2, §3, §5

[8] = tested on: Candida tropicalis (BNCC 340288); format: cell-based; conditions: BNCC 340288, 24 h
Procedure: as §2, §3
Candida tropicalis was cultured on Sabourad Dextrose Agar (SDA). A single colony was inoculated in YM broth medium and grown overnight at 37 °C while shaking. Peptides were diluted in SDB media by two-fold dilution, resulting in 100 µL of medium containing increasing concentrations. The overnight culture (turbidity at OD600 = 1) was 1000× diluted in SDB. Then 100 µL of this suspension was added to each well, resulting in a final 200 µL suspension containing 2–4 × 10^5 CFU/mL. The plate was incubated at 37 °C for 24 h.
as §5

Klebsiella pneumoniae [9] = experiment: Time-dependent growth kinetics (time-kill); format: cell-based; conditions: 37 °C
Procedure: Bacterial viability, expressed as logarithmic colony-forming units per milliliter (Lg CFU/mL), was monitored over 240 min at 37 °C. Results are presented in Figure 6, X as the mean Lg CFU/mL ± standard deviation (SD) from three independent experiments. […] At 2× MIC, a more pronounced effect was observed, with the Lg CFU/mL decreasing to 4.0, a 3.9 Lg CFU/mL reduction. […] This rapid killing profile supports Cy-f2’s potential as an effective antimicrobial peptide.
Klebsiella pneumoniae was cultured in fresh LB nutrient broth at 37 °C following the protocol described by Huang et al., with modifications. Upon reaching the logarithmic growth phase, the bacterial suspension was adjusted to approximately 10^6 CFU/mL and subsequently treated with cyclized f2 at concentrations corresponding to 1×, 2×, and 4× the minimum inhibitory concentration (MIC). Aliquots were collected at 1, 2, 3, and 4 h post-treatment, serially diluted, and plated onto solid agar medium for 24 h incubation. Colony-forming units (CFUs) were enumerated to assess bacterial viability. All experiments were performed in triplicate. Time-dependent growth kinetics were analyzed by plotting bacterial survival (log10 CFU/mL) against time (h) using GraphPad Prism9.5, enabling statistical evaluation of the bactericidal and bacteriostatic effects of the cyclic hexapeptide.

Candida tropicalis = experiment: Scanning electron microscopy of treated cells; format: cell-based; conditions: 4 MIC (32 μM for Cy-f2, 128 μM for Cy-f4), 1 h, 30 °C, 5000× magnification; clotrimazole as positive control
Procedure: (§6) To investigate the morphological effects of the cyclic peptides Cy-f2 and Cy-f4 on Klebsiella pneumoniae and Candida tropicalis, scanning electron microscopy (SEM) was performed (Figure 7). […] Untreated cells served as controls. Samples were fixed, dehydrated, and coated with gold for SEM imaging at 5000× magnification. Effects on Klebsiella pneumoniae (Panel A). […] The bactericidal efficacy of Cy-f2 and Cy-f4 against Klebsiella pneumoniae was verified through comparative evaluation of the treatment group and the positive control group. Effects on Candida tropicalis (Panel B) untreated C. tropicalis cells in the control group appeared as smooth, spherical to oval-shaped yeast cells with intact cell walls.
(§7) According to the method of He with adjustments, bacteria were grown to the logarithmic phase and then washed and resuspended in sterile PBS to an OD600 of 0.4. They were incubated with an equal volume of AMPs at 4× MIC for 1 h. After incubation, the bacterial pellets were washed three times with PBS and centrifuged at 3500 rpm for 4 min. The pellets were then fixed overnight in 2.5% (w/v) glutaraldehyde. The bacterial samples were dehydrated using a series of ethanol solutions with increasing concentrations (30%, 50%, 70%, 90%, and 100%). After dehydration, the samples were dried and sputter-coated with gold. Bacterial fragmentation was observed using scanning electron microscopy (HITACHI SU5000, Tokyo, Japan). Untreated bacterial suspensions served as the negative control.

Klebsiella pneumoniae [10] = experiment: Scanning electron microscopy of treated cells; format: cell-based; conditions: 4 MIC (64 μM for Cy-f2, 128 μM for Cy-f4), 1 h, 37 °C, 5000× magnification; cefoperazone sodium as positive control
Procedure: as §6, §7

red blood cells (RBCs) = format: cell-based
Procedure: as §1
Figure S4. SEM images of RBCs treated with Cy-f1, Cy-f2, and Cy-f4. (A) SEM images of RBCs
treated with Cy-f1. (B) SEM images of RBCs treated with Cy-f2. (C) SEM images of RBCs treated […]

Compound | Hemolysis rate (positive control) (red blood cells) [%] | MIC against B. subtilis [1] [µM] | MIC against E. coli [2] [µM] | MIC against K. pneumoniae [3] [µM] | MIC against P. aeruginosa [4] [µM] | MIC against S. aureus [5] [µM] | MIC against MRSA [6] [µM] | MIC against C. neoformans [7] [µM] | MIC against C. tropicalis [8] [µM] | Reduction of bacterial viability after 240 min (Klebsiella pneumoniae [9]; 1× MIC (16 μM)) [Lg CFU/mL] | Bacterial viability after 240 min (Klebsiella pneumoniae [9]; 1× MIC (16 μM), start 6.55 Lg CFU/mL, mean of three independent experiments) [Lg CFU/mL] | Reduction of bacterial viability after 240 min (Klebsiella pneumoniae [9]; 2× MIC (32 μM)) [Lg CFU/mL] | Bacterial viability after 240 min (Klebsiella pneumoniae [9]; 2× MIC (32 μM), mean of three independent experiments) [Lg CFU/mL] | Bacterial viability within 240 min (Klebsiella pneumoniae [9]; 4× MIC (64 μM), mean of three independent experiments) | Cell morphology of C. tropicalis by SEM (Candida tropicalis) | Cell morphology of K. pneumoniae by SEM (Klebsiella pneumoniae [10]) | Morphology of red blood cells by SEM (red blood cells (RBCs))
Triton X-100 | 100 |  |  |  |  |  |  |  |  |  |  |  |  |  |  |  | 
CC[C@H](C)[C@@H]1NC(=O)[C@H](CCCCN)NC(=O)[C@H](CC(C)C)NC(=O)[C@H](CCCNC(=N)N)NC(=O)[C@H](CS)NC(=O)[C@H](Cc2ccccc2)NC1=O [Cy-f2] (cyclo(CRLKIF)) |  | 32 (≈ 24.4 µg/mL) | 16 (≈ 12.2 µg/mL) | 16 (≈ 12.2 µg/mL) | 16 (≈ 12.2 µg/mL) | 8 (≈ 6.09 µg/mL) | 32 (≈ 24.4 µg/mL) | 8 (≈ 6.09 µg/mL) | 16 (≈ 12.2 µg/mL) | 2.4 | 5.60 | 3.9 | 4.0 | below 1.0 Lg CFU/mL | surface irregularities, cell wall deformation, and some degree of cell collapse | surface roughening, cell shrinkage, and partial membrane disruption | maintained well-preserved cell morphology

Source: paper PMC12156185, “Synthesis of Cyclic Hexapeptides via the Hydrazide Method and Evaluation of Their Antibacterial Activities” (Molecules, 2025)
